What was measured:
[1] = plasma stability assay, rat plasma; type: in vitro ADME; conditions: 37 °C, pH 7.4, 0-120 min
[2] = plasma stability assay, human plasma; type: in vitro ADME; conditions: pH 7.4
mouse sEH = molecular target: T1, mouse sEH (Mus musculus, UniProt P34914); assay: mouse sEH inhibition assay; type: biochemical
T1 sequence (P34914 1-554): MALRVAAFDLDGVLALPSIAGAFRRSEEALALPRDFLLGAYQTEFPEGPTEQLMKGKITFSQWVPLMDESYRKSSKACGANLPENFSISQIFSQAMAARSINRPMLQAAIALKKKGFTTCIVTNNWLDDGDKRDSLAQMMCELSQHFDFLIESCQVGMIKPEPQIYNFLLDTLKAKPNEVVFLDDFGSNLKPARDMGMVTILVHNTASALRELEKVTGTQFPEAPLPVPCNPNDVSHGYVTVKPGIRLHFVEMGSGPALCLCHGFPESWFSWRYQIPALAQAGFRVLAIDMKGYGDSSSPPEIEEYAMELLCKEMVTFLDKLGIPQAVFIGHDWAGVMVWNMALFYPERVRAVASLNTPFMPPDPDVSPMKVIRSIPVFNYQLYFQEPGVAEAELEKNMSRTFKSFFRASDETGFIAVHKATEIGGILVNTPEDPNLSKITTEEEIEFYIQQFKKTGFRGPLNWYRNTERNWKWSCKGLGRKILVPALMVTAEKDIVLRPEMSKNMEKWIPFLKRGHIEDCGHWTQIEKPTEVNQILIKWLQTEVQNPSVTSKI

[3] = system: formalin-induced orofacial pain in female rats; conditions: doses ranging from 0.5 to 5 mg/kg; cited from earlier work

Row | Compound | Half-life ([1]; 5 μM) [min] | half-life at 5 μM ([1]; rat, plasma, pH 7.4, Half-life) [min] | half-life at 5 μM [2] [min] | activity in mouse sEH inhibition assay (in words) (mouse sEH) | effect on formalin-induced orofacial pain [3]
1 | Cc1ccc(-c2csc(-c3ccc(NC(=O)C4CCN(S(=O)(=O)c5ccccc5Cl)CC4)cc3)n2)cc1 [SW-17, 1-((2-chlorophenyl)sulfonyl)-N-(4-(4-(p-tolyl)thiazol-2-yl)phenyl)piperidine-4-carboxamide] | 31.1 | ~30 | 410 | weak inhibitor | 
2 | CNS(=O)(=O)Cc1ccc2[nH]cc(CCN(C)C)c2c1 [sumatriptan] |  |  |  |  | inhibit formalin-induced orofacial pain

Source: PMC11379592 (BBA Advances, 2024)
